Data from the NIST ThermoML archive (doi:10.1016/j.jct.2017.07.013).

Assay: xn = mol fraction of the nth substance listed
Conditions: 101.3 kPa, Liquid; for speed of sound: Frequency=3 MHz, Single path-length method; for mass density: Vibrating tube method

CCCC[n+]1ccn(C)c1.O=S(=O)([N-]S(=O)(=O)C(F)(F)F)C(F)(F)F + COC(=O)OC
Conditions	mass density, 303.15 K [kg/m3]	mass density, 308.15 K [kg/m3]	mass density, 313.15 K [kg/m3]	mass density, 318.15 K [kg/m3]	mass density, 323.15 K [kg/m3]	speed of sound, 303.15 K [m/s]	speed of sound, 308.15 K [m/s]	speed of sound, 313.15 K [m/s]	speed of sound, 318.15 K [m/s]	speed of sound, 323.15 K [m/s]
x1 = 0.0512	1120.1	1113.8	1107.5	1101.2	1094.9	1187	1167.2	1147.5	1127.6	1108.3
x1 = 0.101	1168.9	1163	1157	1151	1145	1196.1	1177.7	1159.4	1141	1123
x1 = 0.1495	1207.1	1201.3	1195.5	1189.8	1184	1203.7	1186.5	1169.4	1152.4	1135.6
x1 = 0.1945	1236.1	1230.5	1224.9	1219.3	1213.7	1209.2	1192.9	1176.8	1160.8	1144.9
x1 = 0.2994	1288.3	1282.9	1277.6	1272.2	1266.9	1215.4	1200.7	1186.2	1171.7	1157.4
x1 = 0.3999	1324.3	1319.1	1313.9	1308.8	1303.6	1217.4	1203.8	1190.3	1176.9	1163.6
x1 = 0.4976	1351.4	1346.3	1341.2	1336.2	1331.1	1217.7	1204.9	1192.1	1179.5	1166.9
x1 = 0.5842	1370.7	1365.6	1360.7	1355.7	1350.7	1217.4	1205	1192.8	1180.6	1168.6
x1 = 0.6886	1389.7	1384.8	1379.8	1374.9	1370.1	1217.4	1205.5	1193.7	1182.1	1170.5
x1 = 0.7475	1399	1394.1	1389.2	1384.3	1379.5	1217.2	1205.6	1194	1182.6	1171.3
x1 = 0.8014	1406.6	1401.8	1396.9	1392.1	1387.3	1217	1205.6	1194.2	1183	1171.8
x1 = 0.889	1417.4	1412.6	1407.8	1403	1398.2	1216.8	1205.6	1194.5	1183.6	1172.7
x1 = 0.9526	1424.2	1419.4	1414.6	1409.9	1405.1	1216.8	1205.7	1194.8	1184	1173.3
x1 = 1	1428.9	1424.1	1419.4	1414.6	1409.9	1216.8	1205.8	1195	1184.2	1173.6
